Literature values in patent publication US4942167A, “Pharmaceutical compositions of piroxicam in aqueous solutions and process for their preparation” (Chiesi Farmaceutici S.p.A., priority 1988, dated 1990).

Settings: in words, background

CN1C(C(=O)Nc2ccccn2)=C(O)c2ccccc2S1(=O)=O [piroxicam, N-(2-pyridyl)-2-methyl-4-hydroxy-2H-1,2-benzothiazine-3-carboxyamido-1,1-dioxide]
water-solubility: poor
